Results taken from PMC6131557, “Selective Cytotoxicity of Dihydroorotate Dehydrogenase Inhibitors to Human Cancer Cells Under Hypoxia and Nutrient-Deprived Conditions” (Frontiers in Pharmacology, 2018).
Where two headings read alike, the source gives them in different places.

Tests used:
[1] = system: NCI-H23; assay: 39-cancer cell panel assay: NCI-H23; type: cell-based; details: Homo sapiens, Lu
[2] = system: PC-3; assay: 39-cancer cell panel assay: PC-3; type: cell-based; details: Homo sapiens, Pro
[3] = system: OVCAR-8; assay: 39-cancer cell panel assay: OVCAR-8; type: cell-based; details: Homo sapiens, Ov
[4] = system: A549; assay: 39-cancer cell panel assay: A549; type: cell-based; details: Homo sapiens, Lu
[5] = system: ACHN; assay: 39-cancer cell panel assay: ACHN; type: cell-based; details: Homo sapiens, Re
[6] = system: HT-29; assay: 39-cancer cell panel assay: HT-29; type: cell-based; details: Homo sapiens, Co
[7] = system: DMS114; assay: 39-cancer cell panel assay: DMS114; type: cell-based; details: Homo sapiens, DMS-114, Lu
[8] = system: MKN45; assay: 39-cancer cell panel assay: MKN45; type: cell-based; details: Homo sapiens, MKN-45, St
[9] = system: OVCAR-3; assay: 39-cancer cell panel assay: OVCAR-3; type: cell-based; details: Homo sapiens, Ov
[10] = system: SK-OV-3; assay: 39-cancer cell panel assay: SK-OV-3; type: cell-based; details: Homo sapiens
[11] = system: MKN74; assay: 39-cancer cell panel assay: MKN74; type: cell-based; details: Homo sapiens, MKN-74, St
[12] = target: T1, Complex II (Bos taurus, UniProt P35720+Q3T189+Q95123); assay: Succinate:quinone reductase (complex II) activity, bovine mitochondria; type: biochemical
T1 construct: from tissue; host or cells: bovine mitochondrial fraction / sub-mitochondrial particles
T1 sequence (P31039 45-665 partner limits assumed): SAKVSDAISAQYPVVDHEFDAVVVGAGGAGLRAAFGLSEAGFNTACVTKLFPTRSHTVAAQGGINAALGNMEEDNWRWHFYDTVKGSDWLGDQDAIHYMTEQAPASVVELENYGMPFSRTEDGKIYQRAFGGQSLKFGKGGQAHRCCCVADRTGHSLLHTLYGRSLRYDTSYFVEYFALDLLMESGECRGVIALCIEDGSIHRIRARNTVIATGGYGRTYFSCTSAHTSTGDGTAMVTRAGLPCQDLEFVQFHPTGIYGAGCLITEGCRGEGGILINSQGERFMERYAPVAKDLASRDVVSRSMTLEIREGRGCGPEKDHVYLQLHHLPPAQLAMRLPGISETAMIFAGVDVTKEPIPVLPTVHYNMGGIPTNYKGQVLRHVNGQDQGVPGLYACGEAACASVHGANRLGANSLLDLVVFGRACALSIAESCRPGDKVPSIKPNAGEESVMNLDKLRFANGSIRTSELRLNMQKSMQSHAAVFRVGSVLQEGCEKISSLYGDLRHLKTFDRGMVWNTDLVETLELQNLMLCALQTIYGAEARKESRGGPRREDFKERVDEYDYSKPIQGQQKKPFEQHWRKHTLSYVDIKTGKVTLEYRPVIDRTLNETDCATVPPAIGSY
T1 sequence (Q3T189 29-280): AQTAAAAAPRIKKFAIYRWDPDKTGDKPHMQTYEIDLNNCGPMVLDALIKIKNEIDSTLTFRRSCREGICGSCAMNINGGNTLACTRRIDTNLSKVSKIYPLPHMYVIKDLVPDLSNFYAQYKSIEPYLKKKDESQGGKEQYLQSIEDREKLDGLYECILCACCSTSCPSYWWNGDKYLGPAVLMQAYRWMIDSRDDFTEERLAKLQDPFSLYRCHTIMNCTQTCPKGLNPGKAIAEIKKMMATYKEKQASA
T1 sequence (P35720 30-169): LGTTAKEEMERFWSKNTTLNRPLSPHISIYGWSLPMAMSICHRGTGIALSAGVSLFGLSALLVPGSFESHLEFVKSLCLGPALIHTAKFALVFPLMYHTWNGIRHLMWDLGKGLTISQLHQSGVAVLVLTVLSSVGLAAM
T1 sequence (Q95123 56-158): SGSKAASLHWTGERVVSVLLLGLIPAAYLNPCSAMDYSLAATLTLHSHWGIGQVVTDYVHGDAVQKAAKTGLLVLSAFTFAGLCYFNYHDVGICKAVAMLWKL

[13] = system: MDA-MB-231; assay: 39-cancer cell panel assay: MDA-MB-231; type: cell-based; details: Homo sapiens, Br
[14] = system: NCI-H522; assay: 39-cancer cell panel assay: NCI-H522; type: cell-based; details: Homo sapiens, Lu
[15] = system: OVCAR-5; assay: 39-cancer cell panel assay: OVCAR-5; type: cell-based; details: Homo sapiens, Ov
[16] = system: HCT-15; assay: 39-cancer cell panel assay: HCT-15; type: cell-based; details: Homo sapiens, Co
[17] = system: SF-539; assay: 39-cancer cell panel assay: SF-539; type: cell-based; details: Homo sapiens, CNS
[18] = system: SF-268; assay: 39-cancer cell panel assay: SF-268; type: cell-based; details: Homo sapiens, CNS
[19] = target: T2, human dihydroorotate dehydrogenase (HsDHODH) (Homo sapiens, UniProt Q02127); assay: Inhibition of recombinant human DHODH enzyme activity; type: biochemical; details: recombinant human DHODH; purified enzyme fixed at 10 nM; read-out: IC50 (nM), inhibition of human DHODH
T2 construct: made in house
T2 sequence (Q02127 whole entry): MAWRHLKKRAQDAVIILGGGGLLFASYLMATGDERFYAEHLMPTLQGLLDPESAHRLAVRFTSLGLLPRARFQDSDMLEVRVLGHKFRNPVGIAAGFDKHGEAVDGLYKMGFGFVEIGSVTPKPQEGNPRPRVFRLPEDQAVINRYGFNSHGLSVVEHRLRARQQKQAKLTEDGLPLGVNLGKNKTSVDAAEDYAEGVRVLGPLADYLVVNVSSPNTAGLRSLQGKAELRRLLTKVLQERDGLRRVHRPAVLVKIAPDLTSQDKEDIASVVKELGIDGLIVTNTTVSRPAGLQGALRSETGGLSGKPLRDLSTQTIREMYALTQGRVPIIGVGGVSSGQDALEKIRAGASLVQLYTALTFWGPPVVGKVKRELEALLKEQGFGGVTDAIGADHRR

[20] = system: KM-12; assay: 39-cancer cell panel assay: KM-12; type: cell-based, human; details: Co
[21] = target: T3, Complex III (Bos taurus, UniProt P00157); assay: Quinol oxidase (complex III) activity, bovine mitochondria; type: biochemical; details: ubiquinol oxidase activity
T3 construct: from tissue; host or cells: bovine mitochondrial fraction / sub-mitochondrial particles

[22] = system: MKN28; assay: 39-cancer cell panel assay: MKN28; type: cell-based; details: Homo sapiens, MKN-28, St
[23] = system: SNB-78; assay: 39-cancer cell panel assay: SNB-78; type: cell-based; details: Homo sapiens, CNS
[24] = system: St-4; assay: 39-cancer cell panel assay: St-4; type: cell-based; details: Homo sapiens
[25] = system: RXF-631L; assay: 39-cancer cell panel assay: RXF-631L; type: cell-based; details: Homo sapiens, Re
[26] = system: HCT-116; assay: 39-cancer cell panel assay: HCT-116; type: cell-based; details: Homo sapiens, Co
[27] = system: SNB-75; assay: 39-cancer cell panel assay: SNB-75; type: cell-based; details: Homo sapiens, CNS
[28] = system: NCI-H226; assay: 39-cancer cell panel assay: NCI-H226; type: cell-based; details: Homo sapiens, Lu
[29] = system: MKN1; assay: 39-cancer cell panel assay: MKN1; type: cell-based; details: Homo sapiens, MKN-1, St
[30] = system: LOX-IMVI; assay: 39-cancer cell panel assay: LOX-IMVI; type: cell-based; details: Homo sapiens, Me
[31] = system: HDF cells; assay: Cytotoxicity assay (Cell Counting Kit-8 / WST-8) on HDF cells; type: cell-based; details: Homo sapiens
Experimental: For hypoxia and nutrient-deprived culture conditions, cells were incubated under 1% oxygen in glucose and glutamine-free DMEM (Gibco) without FBS.
DLD-1 or HDF cells were seeded at 2.5 × 10^4 cells/well on a 96-well plate with normal medium, and cultured overnight under normal culture condition. The cells were washed with PBS and the medium was replaced to either normal medium or glucose and glutamine-free DMEM without FBS. Test compounds or DMSO as a control were added to the wells. The cells in normal medium were cultured under normal culture conditions, while cells in nutrient-deprived medium were cultured under hypoxia condition. After 24 or 48 h incubation, the cells were washed with PBS, 100 μl of fresh normal medium, and 10 μl of Cell Counting Kit-8 solution (Donjindo, Japan) was added to each well. After 3 h incubation under normal culture condition, the absorbance was measured at 450 nm using SpectraMax M2e-TUY microplate reader (Molecular Devices). Cell viability of test wells was calculated based on absorbance of control wells containing DMSO according to manufacturer’s protocol.

[32] = system: HBC-4; assay: 39-cancer cell panel assay: HBC-4; type: cell-based; details: Homo sapiens, HBC4, Br
[33] = system: SF-295; assay: 39-cancer cell panel assay: SF-295; type: cell-based; details: Homo sapiens, CNS
[34] = system: MCF-7; assay: 39-cancer cell panel assay: MCF-7; type: cell-based; details: Homo sapiens, MCF7, Br
[35] = system: Complex I; assay: NADH dehydrogenase (complex I) activity, bovine mitochondria; type: biochemical; details: at 5 μM
Experimental: Recombinant human DHODH was purified, crystallized, and assayed as previously described ([Inaoka et al., 2016]) without modification. Bovine mitochondrial fractions were prepared as previously described ([Kita et al., 1988]) and NADH dehydrogenase (complex I), succinate:quinone reductase (complex II), quinol oxidase (complexes III–IV), NADH-cytochrome c reductase (complexes I–III), and succinate-cytochrome c (complexes II–III) activities were assayed following an established method ([Takamiya et al., 1986]; [Miyadera et al., 2001]; [Matsumoto et al., 2008]; [Kido et al., 2010]; [Nihashi et al., 2017]).

[36] = system: U251; assay: 39-cancer cell panel assay: U251; type: cell-based; details: Homo sapiens, U-251, CNS
[37] = system: BSY-1; assay: 39-cancer cell panel assay: BSY-1; type: cell-based; details: Homo sapiens, Br
[38] = system: HBC-5; assay: 39-cancer cell panel assay: HBC-5; type: cell-based; details: Homo sapiens, HBC5, Br
[39] = system: DU-145; assay: 39-cancer cell panel assay: DU-145; type: cell-based; details: Homo sapiens, Pro
[40] = read-out: IC50 (μM) HDF (24 h) Hypoxia nutrient (-), hypoxia (1% oxygen), nutrient (-)
[41] = read-out: IC50 (μM) HDF (24 h) Normoxia nutrient (+), normoxia, nutrient (+)

Q: `C/C(=C\Cc1c(O)c(Cl)c(C)c(C=O)c1O)CC/C=C(\C)[C@@H]1CC(=O)C(C)(C)O1` [Compound 1, ascofuranone] was tested. Which GI50 [1] did it give?
A: 15 µM

Q: And the GI50 [2]?
A: 13 µM

Q: What about the GI50 [3] of the same compound?
A: 9.5 µM

Q: And the GI50 [4]?
A: 7.6 µM

Q: What about the GI50 [5] of the same compound?
A: 10 µM

Q: What about the GI50 [6] of the same compound?
A: 6.6 µM

Q: What about the GI50 [7] of the same compound?
A: 19 µM

Q: What about the GI50 [8] of the same compound?
A: 10 µM

Q: What about the GI50 [9] of the same compound?
A: 8 µM

Q: What about the GI50 [10] of the same compound?
A: 13 µM

Q: What about the GI50 [11] of the same compound?
A: 13 µM

Q: What about the inhibition at 5 µM [12] of the same compound?
A: 1.5 ± 7.6%

Q: What about the GI50 [13] of the same compound?
A: 7.4 µM

Q: And the GI50 [14]?
A: 8.4 µM

Q: What about the GI50 [15] of the same compound?
A: 7.6 µM

Q: What about the GI50 [16] of the same compound?
A: 1.3 µM

Q: And the GI50 [17]?
A: 1.7 µM

Q: What about the GI50 [18] of the same compound?
A: 7 µM

Q: What about the IC50 [19] of the same compound?
A: 37.5 ± 12 nM

Q: What about the “GI50 (μM) KM-12” value [20] of the same compound?
A: 9.3 µM

Q: What about the inhibition at 5 µM [21] of the same compound?
A: 36 ± 1.2%

Q: And the GI50 [22]?
A: 9.7 µM

Q: And the GI50 [23]?
A: 23 µM

Q: What about the GI50 [24] of the same compound?
A: 14 µM

Q: And the GI50 [25]?
A: 12 µM

Q: And the GI50 [26]?
A: 5.1 µM

Q: And the GI50 [27]?
A: 23 µM

Q: And the GI50 [28]?
A: 15 µM

Q: What about the GI50 [29] of the same compound?
A: 14 µM

Q: What about the GI50 [30] of the same compound?
A: 2.8 µM

Q: And the IC50 [31, 40]?
A: 1.5 ± 0.18 µM

Q: What about the IC50 [31, 41] of the same compound?
A: > 100 µM

Q: What about the GI50 [32] of the same compound?
A: 9.1 µM

Q: And the GI50 [33]?
A: 5.3 µM

Q: And the GI50 [34]?
A: 9 µM

Q: And the “Inhibition (%) Complex I” value [35]?
A: 11 ± 5.8%

Q: And the GI50 [36]?
A: 1.5 µM

Q: And the GI50 [37]?
A: 16 µM

Q: And the GI50 [38]?
A: 28 µM

Q: What about the GI50 [39] of the same compound?
A: 11 µM

Q: `CC(C)=CCC/C(C)=C/CC/C(C)=C/Cc1c(O)c(Cl)c(C)c(C=O)c1O` [Compound 8] was tested. Which GI50 [1] did it give?
A: 2.8 µM

Q: What about the GI50 [2] of the same compound?
A: 1.2 µM

Q: And the GI50 [3]?
A: 0.97 µM

Q: And the GI50 [4]?
A: 0.77 µM

Q: What about the GI50 [5] of the same compound?
A: 0.79 µM

Q: And the GI50 [6]?
A: 1.1 µM

Q: And the GI50 [7]?
A: 2.5 µM

Q: And the GI50 [8]?
A: 6.4 µM

Q: And the GI50 [9]?
A: 1.9 µM

Q: And the GI50 [10]?
A: 37 µM

Q: What about the GI50 [11] of the same compound?
A: 1.9 µM

Q: What about the inhibition at 5 µM [12] of the same compound?
A: 8.2 ± 4.9%

Q: And the GI50 [13]?
A: 2.8 µM

Q: And the GI50 [14]?
A: 1.2 µM

Q: And the GI50 [15]?
A: 6.6 µM

Q: What about the GI50 [16] of the same compound?
A: 0.043 µM

Q: What about the GI50 [17] of the same compound?
A: 0.24 µM

Q: And the GI50 [18]?
A: 0.93 µM

Q: What about the IC50 [19] of the same compound?
A: ~5 nM

Q: What about the “GI50 (μM) KM-12” value [20] of the same compound?
A: 2.0 µM

Q: What about the inhibition at 5 µM [21] of the same compound?
A: > 80%

Q: And the GI50 [22]?
A: 1.3 µM

Q: And the GI50 [23]?
A: 16 µM

Q: And the GI50 [24]?
A: 1.1 µM

Q: And the GI50 [25]?
A: 11 µM

Q: What about the GI50 [26] of the same compound?
A: 0.46 µM

Q: And the GI50 [27]?
A: 0.7 µM

Q: And the GI50 [28]?
A: 10 µM

Q: And the GI50 [29]?
A: 8.2 µM

Q: And the GI50 [30]?
A: 0.61 µM

Q: And the IC50 [31, 40]?
A: 0.16 ± 0.023 µM

Q: And the IC50 [31, 41]?
A: 61 ± 5.3 µM

Q: And the GI50 [32]?
A: 2.2 µM

Q: And the GI50 [33]?
A: 1.3 µM

Q: What about the GI50 [34] of the same compound?
A: 1.3 µM

Q: And the “Inhibition (%) Complex I” value [35]?
A: 43 ± 1.8%

Q: What about the GI50 [36] of the same compound?
A: 0.43 µM

Q: And the GI50 [37]?
A: 13 µM

Q: And the GI50 [38]?
A: 16 µM

Q: And the GI50 [39]?
A: 0.26 µM
